The source of these data is US10717733B2, “Haloallylamine indole and azaindole derivative inhibitors of lysyl oxidases and uses thereof” (PHARMAXIS LTD., priority 2016, dated 2020).

Each structure is given as a SMILES string. Structures can show the parent of a compound that is named as a salt. Where only a bound is given, the exact number is not on record here.

Common to all, as to format: biochemical
One test has as its target Bovine LOX (Bos taurus (Bovine), UniProt P33072). As to the kind of experiment: LOX inhibition, peroxidase-coupled Amplex Red amine oxidase assay. The conditions noted are these: 30 min preincubation at 37° C., putrescine substrate. The method in brief:
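Bovine LOX in 1.2 M urea, 50 mM sodium borate pH 8.2 with 1 μM mofegiline and 0.5 mM pargyline; putrescine at twice KM (e.g. 20 mM for LOX) with Amplex Red/HRP. Fluorescence (ex 565/em 590 nm) read kinetically over 30 min at 37–45 °C; IC50 from slopes.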

Another test has as its target Recombinant human MAO-B (Homo sapiens (Human), UniProt P27338). The experiment in a line: Inhibition of human recombinant MAO-B. The following applies: benzylamine 100 μM. The method in brief:
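Recombinant human MAO-B used as enzyme source (0.06 mg/mL, stated concentration). Run as for the human SSAO/VAP-1 assay, except benzylamine substrate at 100 μM.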

Test [1] has as its target human recombinant SSAO/VAP-1 (Homo sapiens (Human), UniProt Q16853). The experiment in a line: Inhibition of human recombinant SSAO/VAP-1 amine oxidase activity. The conditions noted are these: 30 min preincubation at 37° C., 600 μM benzylamine. The method in brief: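 Purified SSAO/VAP-1 (residues 34-763, expressed in CHO Lec 8 cells; 0.25 μg/mL) preincubated 30 min at 37° C with compound in 0.1 M sodium phosphate pH 7.4. Reaction mix of 600 μM benzylamine, 120 μM Amplex Red and 1.5 U/mL HRP added; fluorescence (ex 565/em 590 nm) read every 2.5 min for 30 min; IC50 from kinetic slopes over 4-11 point curves.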

Sequence of human recombinant SSAO/VAP-1 (Q16853 34-763): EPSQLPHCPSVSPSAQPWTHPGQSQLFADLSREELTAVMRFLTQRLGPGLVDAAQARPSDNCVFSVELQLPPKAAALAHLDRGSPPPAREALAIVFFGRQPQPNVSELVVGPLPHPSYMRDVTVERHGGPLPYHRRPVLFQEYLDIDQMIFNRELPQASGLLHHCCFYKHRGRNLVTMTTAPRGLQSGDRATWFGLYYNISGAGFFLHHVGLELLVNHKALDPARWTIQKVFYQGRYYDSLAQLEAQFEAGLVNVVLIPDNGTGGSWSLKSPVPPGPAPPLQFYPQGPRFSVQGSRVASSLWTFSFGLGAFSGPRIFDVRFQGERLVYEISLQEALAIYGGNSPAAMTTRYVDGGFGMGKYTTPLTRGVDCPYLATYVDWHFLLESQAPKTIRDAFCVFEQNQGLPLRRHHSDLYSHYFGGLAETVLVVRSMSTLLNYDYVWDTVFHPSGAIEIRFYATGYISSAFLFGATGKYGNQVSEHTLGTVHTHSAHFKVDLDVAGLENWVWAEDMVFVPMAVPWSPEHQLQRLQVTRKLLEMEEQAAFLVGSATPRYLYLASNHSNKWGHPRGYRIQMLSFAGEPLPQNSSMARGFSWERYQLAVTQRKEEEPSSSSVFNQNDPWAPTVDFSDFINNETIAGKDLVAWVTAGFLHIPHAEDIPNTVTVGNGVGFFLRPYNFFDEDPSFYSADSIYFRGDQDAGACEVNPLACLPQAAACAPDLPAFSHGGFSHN
Sequence of Bovine LOX (P33072 170-418): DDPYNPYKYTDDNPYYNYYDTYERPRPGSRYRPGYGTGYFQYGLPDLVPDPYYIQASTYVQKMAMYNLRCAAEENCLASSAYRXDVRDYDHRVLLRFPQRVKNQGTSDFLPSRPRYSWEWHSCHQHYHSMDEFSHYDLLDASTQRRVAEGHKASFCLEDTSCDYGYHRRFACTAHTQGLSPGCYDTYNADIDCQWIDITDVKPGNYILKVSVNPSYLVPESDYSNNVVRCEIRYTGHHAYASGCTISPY
Sequence of Recombinant human MAO-B (P27338 whole entry): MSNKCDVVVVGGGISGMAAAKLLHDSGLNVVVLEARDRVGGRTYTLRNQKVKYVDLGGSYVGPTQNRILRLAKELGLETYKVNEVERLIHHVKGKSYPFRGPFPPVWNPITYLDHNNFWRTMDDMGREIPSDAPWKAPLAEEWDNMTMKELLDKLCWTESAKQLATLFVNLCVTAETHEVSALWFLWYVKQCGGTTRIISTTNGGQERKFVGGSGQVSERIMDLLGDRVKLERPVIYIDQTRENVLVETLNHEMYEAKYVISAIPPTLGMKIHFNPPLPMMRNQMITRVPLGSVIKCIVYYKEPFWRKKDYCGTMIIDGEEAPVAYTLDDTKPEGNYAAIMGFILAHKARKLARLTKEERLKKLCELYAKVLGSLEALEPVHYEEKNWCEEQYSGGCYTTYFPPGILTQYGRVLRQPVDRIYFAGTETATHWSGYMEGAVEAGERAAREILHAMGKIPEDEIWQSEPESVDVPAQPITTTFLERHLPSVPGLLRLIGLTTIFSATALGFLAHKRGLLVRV

In general, IC50 refers to the concentration that inhibits the measured activity by half. `Cc1ccc2c(n1)c(-c1cccc(S(C)(=O)=O)c1)c(C)n2C/C(F)=C/CN` [Compound 112, (Z)-4-(2,5-dimethyl-3-(3-(methylsulfonyl)phenyl)-1H-pyrrolo[3,2-b]pyridin-1-yl)-3-fluorobut-2-en-1-amine Dihydrochloride]: the results for the IC50 (at Bovine LOX; on Recombinant human MAO-B; in test [1]) were greater than 300 nM, greater than 3000 nM and greater than 3000 nM, respectively.
Turning to `CCOC(=O)c1ccc2c(c1)c(-c1cccc(S(=O)(=O)N(C)C)c1)c(C)n2C/C(F)=C/CN` [Compound 12, (Z)-ethyl 1-(4-amino-2-fluorobut-2-en-1-yl)-3-(3-(N,N-dimethylsulfamoyl)phenyl)-2-methyl-1H-indole-5-carboxylate], the half-maximal inhibitory concentration (IC50) is greater than 300 nM at Bovine LOX, greater than 3000 nM at Recombinant human MAO-B and greater than 3000 nM in test [1].
`Cc1c(-c2cccc(S(=O)(=O)N(C)C)c2)c2ncccc2n1C/C(F)=C/CN` [Compound 25, (Z)-3-(1-(4-amino-2-fluorobut-2-en-1-yl)-2-methyl-1H-pyrrolo[3,2-b]pyridin-3-yl)-N,N-dimethylbenzenesulfonamide Dihydrochloride]: the results for the IC50 (on Bovine LOX; on Recombinant human MAO-B; in test [1]) were greater than 300 nM, greater than 3000 nM and greater than 3000 nM, respectively.
